Data taken from patent publication US20150359220A1, “COMPOSITIONS COMPRISING GOUGEROTIN AND A FUNGICIDE” (BAYER CROPSCIENCE LP, priority 2013, published 2015).
Read-outs that look alike come from different tables or passages of the source.

What was measured:
[1] = system: Blumeria graminis fsp. hordei; test: Blumeria test (barley)/preventive; type: in vivo; conditions: 7 days after inoculation
Sphaerotheca fuliginea = test: Sphaerotheca test (cucumbers)/preventive; type: in vivo
Phytophthora infestans = test: whole plant or invertebrate; type: in vivo; conditions: for pest or weed control at 100 ppm: Phytophthora infestans, topical, 72 h, read-out: Efficacy in % found; for Efficacy in % found: Table 9, 100 ppm a.i., 3 days after inoculation
Venturia inaequalis = test: Venturia test (apples)/preventive; conditions: for pest or weed control at 1 ppm / pest or weed control at 50 ppm: Venturia inaequalis, 240 h, read-out: Efficacy in % found; for Efficacy in % found: 10 days after inoculation
Protocol: After the spray coating has dried on, the plants are inoculated with an aqueous conidia suspension of the causal agent of apple scab (Venturia inaequalis) and then remain for 1 day in an incubation cabinet at approximately 20° C. and a relative atmospheric humidity of 100%. The plants are then placed in a greenhouse at approximately 21° C. and a relative atmospheric humidity of approximately 90%.
The test is evaluated 10 days after the inoculation.

Puccinia triticina = test: Puccinia triticina-test (wheat)/preventive; type: in vivo; conditions: 8 days after inoculation
Alternaria solani = test: Alternaria test (tomatoes)/preventive; type: in vivo; conditions: 3 days after inoculation
Botrytis cinerea = test: Botrytis test (beans)/preventive; conditions: Table 7, size of lesions 2 days after inoculation
Protocol: After the spray coating has dried on, 2 small pieces of agar covered with growth of Botrytis cinerea are placed on each leaf. The inoculated plants are placed in a darkened chamber at 20° C. and a relative atmospheric humidity of 100%.
2 days after the inoculation, the size of the lesions on the leaves is evaluated.

Septoria tritici = test: Septoria tritici-test (wheat)/preventive; type: in vivo; conditions: 21 days after inoculation
Pyrenophora teres = test: Pyrenophora teres-test (barley)/preventive; type: in vivo; conditions: Table 15, 8 days after inoculation
[2] = system: gram-positive, gram-negative bacteria and tubercule bacillus; conditions: according to U.S. Pat. No. 3,849,398; cited from earlier work
[3] = system: parasites on animals, such as pin worm; conditions: according to U.S. Pat. No. 3,849,398; cited from earlier work
[4] = Alternaria solani, topical, 72 h, Table 2, 2 ppm a.i., read-out: Efficacy in % found
[5] = Podosphaera fuliginea, 168 h, Table 20, 100 ppm a.i., 7 days after inoculation, read-out: Efficacy in % found

## CC1COC(Cn2cncn2)(c2ccc(Oc3ccc(Cl)cc3)cc2Cl)O1 (stereo not drawn) [F7, difenoconazole]
[1]; Table 6, 62.5 ppm a.i.
  Efficacy in % found: 44%
[1]; Table 6, 125 ppm a.i.
  Efficacy in % found: 67%
Sphaerotheca fuliginea; Podosphaera fuliginea, 168 h, Table 19, 1 ppm a.i., 7 days after inoculation, read-out: Efficacy in % found
  pest or weed control at 1 ppm: 0%
Phytophthora infestans
  pest or weed control at 100 ppm: 0%
Venturia inaequalis
  pest or weed control at 1 ppm: 38%
Puccinia triticina; Table 13, 31.25 ppm a.i.
  Efficacy in % found: 30%
Puccinia triticina; Table 13, 62.5 ppm a.i.
  Efficacy in % found: 60%
Alternaria solani; [4]
  pest or weed control at 2 ppm: 30%

## CCCN(CC)CC1COC2(CCC(C(C)(C)C)CC2)O1 (stereo not drawn) [F46, spiroxamine]
[1]; Table 6, 125 ppm a.i.
  Efficacy in % found: 11%
Sphaerotheca fuliginea; [5]
  pest or weed control at 100 ppm: 30%
Botrytis cinerea; 100 ppm a.i.
  Efficacy in % found: 14%
Venturia inaequalis
  pest or weed control at 50 ppm: 0%
Alternaria solani; Alternaria solani, topical, 72 h, Table 4, 50 ppm a.i., read-out: Efficacy in % found
  pest or weed control at 50 ppm: 46%

## CC(C)(C)C(O)(CCc1ccc(Cl)cc1)Cn1cncn1 (stereo not drawn) [F47, tebuconazole]
[1]; Table 6, 31.25 ppm a.i.
  Efficacy in % found: 78%
Phytophthora infestans
  pest or weed control at 100 ppm: 15%
Septoria tritici; Table 17, 125 ppm a.i.
  Efficacy in % found: 57%
Venturia inaequalis
  pest or weed control at 1 ppm: 0%
Puccinia triticina; Table 13, 31.25 ppm a.i.
  Efficacy in % found: 30%
Puccinia triticina; Table 13, 62.5 ppm a.i.
  Efficacy in % found: 60%
Alternaria solani; [4]
  pest or weed control at 2 ppm: 35%

## O=C(NCCc1ncc(C(F)(F)F)cc1Cl)c1ccccc1C(F)(F)F [F70, fluopyram]
[1]; Table 5, 31.25 ppm a.i.
  Efficacy in % found: 0%
[1]; Table 5, 62.5 ppm a.i.
  Efficacy in % found: 0%
Sphaerotheca fuliginea; Table 19, 1 ppm a.i., 7 days after inoculation
  Efficacy in % found: 0%
Septoria tritici; Table 16, 62.5 ppm a.i.
  Efficacy in % found: 0%
Venturia inaequalis; Table 21, 1 ppm a.i.
  Efficacy in % found: 0%
Pyrenophora teres; 31.25 ppm a.i.
  Efficacy in % found: 60%
Pyrenophora teres; 62.5 ppm a.i.
  Efficacy in % found: 80%
Alternaria solani; Table 2, 2 ppm a.i.
  Efficacy in % found: 40%

## CC(C)Oc1cccc(NC(=O)c2ccccc2C(F)(F)F)c1 [F71, flutolanil]
Sphaerotheca fuliginea; [5]
  pest or weed control at 100 ppm: 20%
Botrytis cinerea; 250 ppm a.i.
  Efficacy in % found: 30%
Venturia inaequalis
  pest or weed control at 50 ppm: 0%

## Cn1cc(C(=O)Nc2ccccc2-c2cc(F)c(F)c(F)c2)c(C(F)F)n1 [F72, fluxapyroxad]
[1]; Table 5, 31.25 ppm a.i.
  Efficacy in % found: 0%
Phytophthora infestans
  Efficacy in % found: 0%
Septoria tritici; Table 16, 31.25 ppm a.i.
  Efficacy in % found: 13%
Venturia inaequalis; Table 21, 0.25 ppm a.i.
  Efficacy in % found: 0%
Puccinia triticina; Table 12, 15.625 ppm a.i.
  Efficacy in % found: 22%
Puccinia triticina; Table 12, 31.25 ppm a.i.
  Efficacy in % found: 22%
Pyrenophora teres; 15.625 ppm a.i.
  Efficacy in % found: 80%
Pyrenophora teres; 31.25 ppm a.i.
  Efficacy in % found: 90%
Alternaria solani; Table 2, 0.5 ppm a.i.
  Efficacy in % found: 45%

## Cc1nn(C)c(F)c1C(=O)Nc1ccccc1C(C)CC(C)C (stereo not drawn) [F84, penflufen]
Sphaerotheca fuliginea; Table 19, 0.5 ppm a.i., 7 days after inoculation
  Efficacy in % found: 0%
Phytophthora infestans
  Efficacy in % found: 8%
Venturia inaequalis; Table 21, 0.5 ppm a.i.
  Efficacy in % found: 0%
Puccinia triticina; Table 12, 31.25 ppm a.i.
  Efficacy in % found: 67%
Pyrenophora teres; 62.5 ppm a.i.
  Efficacy in % found: 70%
Pyrenophora teres; 125 ppm a.i.
  Efficacy in % found: 60%

## CO/C=C(/C(=O)OC)c1ccccc1Oc1cc(Oc2ccccc2C#N)ncn1 [F107, azoxystrobin]
[1]; Table 5, 31.25 ppm a.i.
  Efficacy in % found: 10%
Sphaerotheca fuliginea; Table 18, 0.5 ppm a.i., 7 days after inoculation
  Efficacy in % found: 37%
Septoria tritici; Table 16, 15.625 ppm a.i.
  Efficacy in % found: 13%
Septoria tritici; Table 16, 31.25 ppm a.i.
  Efficacy in % found: 50%
Venturia inaequalis; Table 22, 0.5 ppm a.i.
  Efficacy in % found: 84%
Puccinia triticina; Table 12, 7.8125 ppm a.i.
  Efficacy in % found: 67%
Pyrenophora teres; 15.625 ppm a.i.
  Efficacy in % found: 60%
Pyrenophora teres; 31.25 ppm a.i.
  Efficacy in % found: 90%
Alternaria solani; Table 3, 2 ppm a.i.
  Efficacy in % found: 41%

## N#Cc1ccccc1NC(=O)c1snc(Cl)c1Cl [F187, isotianil]
Sphaerotheca fuliginea; Table 20, 100 ppm a.i., 7 days after inoculation
  Efficacy in % found: 20%
Botrytis cinerea; 125 ppm a.i.
  Efficacy in % found: 40%
Septoria tritici; Table 17, 250 ppm a.i.
  Efficacy in % found: 29%
Septoria tritici; Table 17, 500 ppm a.i.
  Efficacy in % found: 29%
Venturia inaequalis; Table 21, 50 ppm a.i.
  Efficacy in % found: 0%
Alternaria solani; Table 4, 50 ppm a.i.
  Efficacy in % found: 18%

## N#Cc1c[nH]cc1-c1cccc2c1OC(F)(F)O2 [F248, fludioxonil]
Sphaerotheca fuliginea; Podosphaera fuliginea, 168 h, read-out: Efficacy in % found
  pest or weed control at 100 ppm: 30%
Botrytis cinerea; 2.5 ppm a.i.
  Efficacy in % found: 26%
Venturia inaequalis
  pest or weed control at 50 ppm: 0%

## CNCC(=O)NC(CO)C(=O)NC1C(C(N)=O)OC(n2ccc(N)nc2=O)C(O)C1O [gougerotin, 1-(4-Amino-2-oxo-1(2H)-pyrimidinyl)-1,4-dideoxy-4-[[N—(N-methylglycyl)-D-seryl]amino]-b-D-glucopyranuronamide]
[2]
  antibacterial activity: weak antibacterial activity
[3]
  parasiticidal action: parasiticidal action
